In patent US9896423B2, “Deuterium substituted 1-[2-(2,4-dimethyl-phenylsulfanyl)-phenyl]piperazine compound or derivatives thereof, and pharmaceutical composition and use thereof” (Jiangsu Jibeier Pharmaceutical Co. Ltd., priority 2014, dated 2018):
Where “and” joins values, the source holds several entries; their conditions need not be identical. Equal values may be shown once. Where a name gives a salt, the structure may show the parent alone. Read-outs that look alike come from different tables or passages of the source.

Assay: Pharmacokinetic test in rats, gavage administration
Assay type: in vivo, SD rats
Description: The preferred compound of the present disclosure was assessed in rats for its pharmacokinetic profile.
SD rats, male and female, weighing 150 to 250 g
Mobile phase: 10 mM ammonium formate aqueous solution:methanol=15:85
The ionization source was electrospray ionization source. The detection mode was positive mode. Multiple reaction monitoring (MRM) was used as the scanning mode. The ion reaction for the quantitative analysis was the following: m/z was 305.2\150.0 for XX, and 256.1\167.1 for diphenhydramine (the internal standard).
XX or YY was orally administered with single dose of 20 mg/kg to six SD rats, one half of which were male and the other half was female. XX or YY was dissolved in 10% hydroxypropyl-β-cyclodextrin. […]
After the blood collection, the tubes were immediately gently turned upside down at least five times to ensure sufficient mixing, and placed on ice. Heparin was added for anticoagulation. The samples were centrifuged at 8000 rpm for 5 min to separate serum from erythrocyte. The serum was transferred with a pipettor to 2 mL polypropylene (PP) tubes, which were marked with the name of the compound and the time points, and stored in a refrigerator at −40° C. before LC-MS analysis. Samples with high concentrations were diluted with rat blank plasma.
2.5 μL of Meth-H2O and 5 μL of the internal standard solution (20 ng/mL, IS) were added to 50 μL of the plasma. Subsequently, 150 μL of methanol was added to the mixture to precipitate protein and the samples were then centrifuged at 13000 rpm for 5 min. The upper organic phase was taken out, filtrated with a 0.22 μM microporous membrane, and 2 μL of the sample was injected for the LC-MS analysis.

[1] = rats, oral 20 mg/kg, individual rats 1-6, 20 mg/kg

bioavailability (both sexes, SD, rat, plasma, po, 20 mg/kg, rats, oral 20 mg/kg vs iv 2 mg/kg, individual rats 1-6, read-out: F %): 11%
AUC(0-t) (both sexes, SD, rat, plasma, po, 20 mg/kg, rats, oral 20 mg/kg, individual rats 1-6, read-out: AUC0-1): 524 ng·h/mL
AUC(0-inf) (both sexes, SD, rat, plasma, po, 20 mg/kg, rats, oral 20 mg/kg, individual rats 1-6, read-out: AUC0-∞): 532 ng·h/mL
Cmax (both sexes, SD, rat, plasma, po, 20 mg/kg, rats, oral 20 mg/kg, individual rats 1-6, read-out: Cmax): 78.6 ng/mL
MRT inf (both sexes, SD, rat, plasma, po, 20 mg/kg, rats, oral 20 mg/kg, individual rats 1-6, read-out: MRT0-∞): 5.62 h
AUC(0-t) (both sexes, SD, rat, plasma, po, 20 mg/kg, rats, oral 20 mg/kg, n = 6, read-out: AUC0-1, Mean ± SD): 583 ± 82.7 ng·h/mL
AUC(0-inf) (both sexes, SD, rat, plasma, po, 20 mg/kg, rats, oral 20 mg/kg, n = 6, read-out: AUC0-∞, Mean ± SD): 586 ± 82.8 ng·h/mL
Cmax (both sexes, SD, rat, plasma, po, 20 mg/kg, rats, oral 20 mg/kg, n = 6, read-out: Cmax, Mean ± SD): 105 ± 26.5 ng/mL
MRT inf (both sexes, SD, rat, plasma, po, 20 mg/kg, rats, oral 20 mg/kg, n = 6, read-out: MRT0-∞, Mean ± SD): 4.93 ± 0.58 h
half-life (both sexes, SD, rat, plasma, po, 20 mg/kg, rats, oral 20 mg/kg, n = 6, read-out: t1/2, Mean ± SD (converted)): 2.92 ± 0.8 h
concentration at 10 min (both sexes, Sprague-Dawley, rat, plasma, oral, 20 mg/kg, 20 mg/kg oral, 10 min (Table 5: 0.167 h), mean of 6 rats, read-out: Concentrations in Plasma of Rats after Oral Administration, Mean ± SD): 13.7 ± 6.65 ng/mL
concentration at 0.5 h (both sexes, Sprague-Dawley, rat, plasma, oral, 20 mg/kg, 20 mg/kg oral, 0.5 h, mean of 6 rats, read-out: Concentrations in Plasma of Rats after Oral Administration, Mean ± SD): 62.9 ± 19.6 ng/mL
concentration at 1 h (both sexes, Sprague-Dawley, rat, plasma, oral, 20 mg/kg, 20 mg/kg oral, 1 h, mean of 6 rats, read-out: Concentrations in Plasma of Rats after Oral Administration, Mean ± SD): 95.8 ± 32.9 ng/mL
concentration at 1.5 h (both sexes, Sprague-Dawley, rat, plasma, oral, 20 mg/kg, 20 mg/kg oral, 1.5 h, individual rats 1-6, read-out: Concentrations in Plasma of Rats after Oral Administration): 73.4 ng/mL
concentration at 1.5 h (both sexes, Sprague-Dawley, rat, plasma, oral, 20 mg/kg, 20 mg/kg oral, 1.5 h, mean of 6 rats, read-out: Concentrations in Plasma of Rats after Oral Administration, Mean ± SD): 103 ± 26.9 ng/mL
concentration at 2 h (both sexes, Sprague-Dawley, rat, plasma, oral, 20 mg/kg, 20 mg/kg oral, 2 h, individual rats 1-6, read-out: Concentrations in Plasma of Rats after Oral Administration): 78.6 ng/mL
concentration at 2 h (both sexes, Sprague-Dawley, rat, plasma, oral, 20 mg/kg, 20 mg/kg oral, 2 h, mean of 6 rats, read-out: Concentrations in Plasma of Rats after Oral Administration, Mean ± SD): 98.2 ± 19.5 ng/mL
concentration at 3 h (both sexes, Sprague-Dawley, rat, plasma, oral, 20 mg/kg, 20 mg/kg oral, 3 h, individual rats 1-6, read-out: Concentrations in Plasma of Rats after Oral Administration): 58 ng/mL
concentration at 3 h (both sexes, Sprague-Dawley, rat, plasma, oral, 20 mg/kg, 20 mg/kg oral, 3 h, mean of 6 rats, read-out: Concentrations in Plasma of Rats after Oral Administration, Mean ± SD): 68.7 ± 12 ng/mL
concentration at 4 h (both sexes, Sprague-Dawley, rat, plasma, oral, 20 mg/kg, 20 mg/kg oral, 4 h, individual rats 1-6, read-out: Concentrations in Plasma of Rats after Oral Administration): 63.4 ng/mL
concentration at 4 h (both sexes, Sprague-Dawley, rat, plasma, oral, 20 mg/kg, 20 mg/kg oral, 4 h, mean of 6 rats, read-out: Concentrations in Plasma of Rats after Oral Administration, Mean ± SD): 65.1 ± 10.4 ng/mL
concentration at 6 h (both sexes, Sprague-Dawley, rat, plasma, oral, 20 mg/kg, 20 mg/kg oral, 6 h, individual rats 1-6, read-out: Concentrations in Plasma of Rats after Oral Administration): 46.1 ng/mL
concentration at 6 h (both sexes, Sprague-Dawley, rat, plasma, oral, 20 mg/kg, 20 mg/kg oral, 6 h, mean of 6 rats, read-out: Concentrations in Plasma of Rats after Oral Administration, Mean ± SD): 44.1 ± 7.27 ng/mL
concentration at 8 h (both sexes, Sprague-Dawley, rat, plasma, oral, 20 mg/kg, 20 mg/kg oral, 8 h, individual rats 1-6, read-out: Concentrations in Plasma of Rats after Oral Administration): 22.1 ng/mL
concentration at 8 h (both sexes, Sprague-Dawley, rat, plasma, oral, 20 mg/kg, 20 mg/kg oral, 8 h, mean of 6 rats, read-out: Concentrations in Plasma of Rats after Oral Administration, Mean ± SD): 23.5 ± 4.49 ng/mL
concentration at 10 h (both sexes, Sprague-Dawley, rat, plasma, oral, 20 mg/kg, 20 mg/kg oral, 10 h, individual rats 1-6, read-out: Concentrations in Plasma of Rats after Oral Administration): 16.7 ng/mL
concentration at 10 h (both sexes, Sprague-Dawley, rat, plasma, oral, 20 mg/kg, 20 mg/kg oral, 10 h, mean of 6 rats, read-out: Concentrations in Plasma of Rats after Oral Administration, Mean ± SD): 16.5 ± 2.41 ng/mL
concentration at 12 h (both sexes, Sprague-Dawley, rat, plasma, oral, 20 mg/kg, 20 mg/kg oral, 12 h, individual rats 1-6, read-out: Concentrations in Plasma of Rats after Oral Administration): 8.86 ng/mL
concentration at 12 h (both sexes, Sprague-Dawley, rat, plasma, oral, 20 mg/kg, 20 mg/kg oral, 12 h, mean of 6 rats, read-out: Concentrations in Plasma of Rats after Oral Administration, Mean ± SD): 8.24 ± 1.69 ng/mL
concentration at 14 h (both sexes, Sprague-Dawley, rat, plasma, oral, 20 mg/kg, 20 mg/kg oral, 14 h, mean of 6 rats, read-out: Concentrations in Plasma of Rats after Oral Administration, Mean ± SD): 4.27 ± 1.58 ng/mL
concentration at 24 h (both sexes, Sprague-Dawley, rat, plasma, oral, 20 mg/kg, 20 mg/kg oral, 24 h, mean of 6 rats, read-out: Concentrations in Plasma of Rats after Oral Administration, Mean ± SD): 0.75 ± 0.51 ng/mL
bioavailability (both sexes, Sprague-Dawley, rat, plasma, oral, 20 mg/kg, rats, oral 20 mg/kg vs iv 2 mg/kg, n = 6, read-out: F % (absolute bioavailability), Mean ± SD): 12.2 ± 1.72%
AUC(0-t) (both sexes, Sprague-Dawley, rat, plasma, po, 20 mg/kg, gavage administration of 20 mg/kg, rats, read-out: AUC0-t in the rats' plasma): 583 ± 82.7 ng·h/mL
AUC0-t increased comparing with that of its non-deuterium counterpart (rats, gavage 20 mg/kg, relative to Vortioxetine): 19%
Compound: [2H]C([2H])([2H])c1ccc(Sc2ccccc2N2CCNCC2)c(C([2H])([2H])[2H])c1 [XX, 1-{2-[2,4-bis(trideuteriomethyl)phenylsulfanyl]phenyl}piperazine hydrobromic acid salt]
Concentrations in Plasma of Rats after Oral Administration (20 mg/kg oral, 10 min (Table 5: 0.167 h) after administration, individual rats 1-6): 10.6 ng/mL and 7 ng/mL and 7.88 ng/mL and 24.8 ng/mL and 15.6 ng/mL and 16.2 ng/mL
Concentrations in Plasma of Rats after Oral Administration (20 mg/kg oral, 1 h, individual rats 1-6): 68.4 ng/mL and 83.6 ng/mL and 55.2 ng/mL and 107.6 ng/mL and 144 ng/mL and 115.8 ng/mL
Concentrations in Plasma of Rats after Oral Administration (20 mg/kg oral, 1.5 h, individual rats 1-6): 91.6 ng/mL and 77.4 ng/mL and 120.8 ng/mL and 142.8 ng/mL and 109.6 ng/mL
Concentrations in Plasma of Rats after Oral Administration (20 mg/kg oral, 2 h, individual rats 1-6): 86.6 ng/mL and 77.8 ng/mL and 118.4 ng/mL and 119.6 ng/mL and 108 ng/mL
Concentrations in Plasma of Rats after Oral Administration (20 mg/kg oral, 3 h, individual rats 1-6): 65.8 ng/mL and 53.8 ng/mL and 85.8 ng/mL and 77.6 ng/mL and 71.2 ng/mL
Concentrations in Plasma of Rats after Oral Administration (20 mg/kg oral, 4 h, individual rats 1-6): 60.8 ng/mL and 56 ng/mL and 61.2 ng/mL and 85.6 ng/mL and 63.4 ng/mL
Concentrations in Plasma of Rats after Oral Administration (20 mg/kg oral, 6 h, individual rats 1-6): 48.7 ng/mL and 36.8 ng/mL and 42.8 ng/mL and 54.6 ng/mL and 35.5 ng/mL
Concentrations in Plasma of Rats after Oral Administration (20 mg/kg oral, 8 h, individual rats 1-6): 22.5 ng/mL and 20.9 ng/mL and 31.7 ng/mL and 25.1 ng/mL and 18.9 ng/mL
Concentrations in Plasma of Rats after Oral Administration (20 mg/kg oral, 10 h, individual rats 1-6): 17.9 ng/mL and 15.5 ng/mL and 20.3 ng/mL and 14.9 ng/mL and 13.5 ng/mL
Concentrations in Plasma of Rats after Oral Administration (20 mg/kg oral, 12 h, individual rats 1-6): 8.22 ng/mL and 6.78 ng/mL and 11.3 ng/mL and 7.08 ng/mL and 7.2 ng/mL
Concentrations in Plasma of Rats after Oral Administration (20 mg/kg oral, 14 h, individual rats 1-6): 4.01 ng/mL and 3.56 ng/mL and 7.32 ng/mL and 4.43 ng/mL and 3.11 ng/mL and 3.19 ng/mL
Concentrations in Plasma of Rats after Oral Administration (20 mg/kg oral, 24 h, individual rats 1-6): 1.46 ng/mL and 0.571 ng/mL and 0.368 ng/mL and 1.32 ng/mL and 0.365 ng/mL and 0.389 ng/mL
F % (rats, oral 20 mg/kg vs iv 2 mg/kg, individual rats 1-6): 11.5% and 10.1% and 13.8% and 14.6% and 11.9%
AUC0-t (area under the plasma concentration-time curve from zero to the last sampling time) [1]: 552.3 ng·h/mL and 487.5 ng·h/mL and 659.3 ng·h/mL and 703.9 ng·h/mL and 569.8 ng·h/mL
AUC0-∞ [1]: 552.5 ng·h/mL and 488.9 ng·h/mL and 666.0 ng·h/mL and 705.3 ng·h/mL and 571.4 ng·h/mL
Cmax [1]: 91.6 ng/mL and 77.8 ng/mL and 120.8 ng/mL and 144 ng/mL and 115.8 ng/mL
MRT0-∞ [1]: 4.92 h and 5.44 h and 5.08 h and 4.24 h and 4.28 h
t1/2 [1]: 4.0 h and 1.7 h and 2.8 h and 3.5 h and 2.6 h and 2.9 h
